{"source": "patent US20060247320A1", "about": "“Compounds for inhibiting KSP kinesin activity” (priority 2005, published 2006)"}
{"target": "T1, KSP motor domain (Homo sapiens, UniProt P52732)", "T1 sequence (P52732 18-359 limits assumed)": "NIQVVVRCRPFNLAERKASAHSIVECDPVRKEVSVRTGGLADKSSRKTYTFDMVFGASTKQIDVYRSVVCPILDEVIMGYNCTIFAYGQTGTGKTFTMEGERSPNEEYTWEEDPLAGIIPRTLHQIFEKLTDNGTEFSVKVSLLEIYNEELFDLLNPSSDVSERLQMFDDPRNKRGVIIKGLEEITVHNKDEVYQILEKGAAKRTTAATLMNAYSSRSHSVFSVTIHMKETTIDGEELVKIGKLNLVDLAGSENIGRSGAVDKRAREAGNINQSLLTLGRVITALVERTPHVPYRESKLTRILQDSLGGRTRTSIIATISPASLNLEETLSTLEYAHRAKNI", "assay": "biochemical", "conditions": "IC50 (nM), KSP inhibitory activity, end-point assay; class symbols (Table 1)", "units": {"IC50": "nM"}}
{"smiles": "CCOC(=O)c1sc2nc3c(cc2c1N)CC([Si](C)(C)C)CC3", "note": "(stereo not shown) [Example 187, Ethyl 3-Amino-5,6,7,8-Tetrahydro-6-(Trimethylsilyl)thieno[2,3-b]quinoline-2-Carboxylate]", "IC50": "> 10000"}
{"target": "T1, KSP motor domain", "assay": "biochemical", "conditions": "KSP inhibitory activity, end-point assay; class symbols (Table 1)"}
{"smiles": "CC(C)(C)C1CCc2nc3sc(NC=O)nc3cc2C1", "note": "(stereo not shown) [Example 134, N-(7-tert-Butyl-5,6,7,8-tetrahydrothiazolo[5,4-b]quinolin-2-yl)-formamide]", "IC50 (nM)": "B/C"}
{"target": "T1, KSP motor domain", "assay": "biochemical", "conditions": "KSP inhibitory activity, end-point assay; class symbols (Table 1); read-out: IC50", "units": {"IC50": "nM"}}
{"smiles": "CC(C)(C)[C@@H]1CCc2nc3sc(C(=O)N[C@H](CN)c4cccc(NC(=O)c5ccno5)c4)cc3cc2C1", "note": "[Example 231, 6(R)-tert-butyl-5,6,7,8-tetrahydro-thieno[2,3-b]quinoline-2-carboxylic acid (2-amino-1(S)-{3-[(isoxazole-5-carbonyl)-amino]-phenyl}-ethyl)-amide]", "IC50": "< 100"}
{"smiles": "CC(C)(C)[C@@H]1CCc2nc3sc(C(=O)N[C@H](CN)c4cccc(NC(=O)c5ccon5)c4)cc3cc2C1", "note": "[Example 232]", "IC50": "< 100"}
{"smiles": "CCC1Cc2nc3sc(C#N)c(N)c3cc2CC1C(C)(C)C", "note": "(stereo not shown) [Example 205, 3-Amino-6-tert-butyl-7-ethyl-5,6,7,8-tetrahydrothieno[2,3-b]quinoline-2-carbonitrile]", "IC50": "1000 to 10000"}
{"smiles": "CCC(C(C)C)C1CCc2nc3sc(C#N)c(N)c3cc2C1", "note": "(stereo not shown) [Example 28]", "IC50": "100 to 1000"}
{"smiles": "CCC(C)(C)C1CCc2nc3sc(C#N)cc3c(Cl)c2C1", "note": "(stereo not shown) [Example 113]", "IC50": "1000 to 10000"}
{"smiles": "CC(C)(C)C1CCc2nc3sc(C(=O)N4CCNCC4)cc3cc2C1", "note": "(stereo not shown) [Example 95]", "IC50": "> 10000"}
{"smiles": "CC(C)(C)C(C)(C)C1CCc2nc3sc(C#N)c(N)c3cc2C1", "note": "(stereo not shown) [Example 9]", "IC50": "1000 to 10000"}
{"smiles": "CC(C)(C)C1CCc2nc3sc(C(=O)N[C@H](C#N)Cc4ccccc4)cc3cc2C1", "note": "(stereo partly drawn) [Example 163, 6-tert-Butyl-5,6,7,8-tetrahydrothieno[2,3-b]quinoline-2-carboxylic acid [(1S)-1-cyano-2-phenylethyl)amide]", "IC50": "> 10000"}
{"smiles": "N#Cc1sc2nc3c(cc2c1N)CC(Cc1ccccc1)CC3", "note": "(stereo not shown) [Example 31]", "IC50": "> 10000"}
{"smiles": "CC(C)(C)C1CCc2nc3sc(C(=O)Nc4ccc(O)c(N)c4)cc3cc2C1", "note": "(stereo not shown) [Example 226H]", "IC50": "100 to 1000"}
{"smiles": "C/C=C/C=C1\\CCc2nc3sc(C#N)c(N)c3cc2C1", "note": "[Example 35]", "IC50": "> 10000"}
{"smiles": "CC(C)(C)[C@@H]1CCc2nc3sc(C(=O)N[C@H](CN)c4ccc(NC(=O)c5cnccn5)cc4)cc3cc2C1", "note": "[Example 269, 6(R)-tert-Butyl-5,6,7,8-tetrahydro-thieno[2,3-b]quinoline-2-carboxylic acid (2-amino-1(S)-{4-[(pyrazine-2-carbonyl)-amino]-phenyl}-ethyl)-amide]", "IC50": "< 100"}
{"smiles": "Cc1cc(C(=O)Nc2cccc([C@@H](CN)NC(=O)c3cc4cc5c(nc4s3)CC[C@@H](C(C)(C)C)C5)c2)no1", "note": "[Example 229]", "IC50": "< 100"}
{"smiles": "CCCCC1CCc2nc3sc(C#N)c(N)c3cc2C1", "note": "(stereo not shown) [Example 32]", "IC50": "> 10000"}
{"smiles": "CC[C@@H](C#N)NC(=O)c1cc2cc3c(nc2s1)CCC(C(C)(C)C)C3", "note": "(stereo partly drawn) [Example 166, 6-tert-Butyl-5,6,7,8-tetrahydrothieno[2,3-b]quinoline-2-carboxylic acid [(1S)-1-cyanopropyl)amide]", "IC50": "> 10000"}
{"smiles": "N#Cc1sc2nc3c(cc2c1N)CN(CC1CC1)CC3", "note": "[Example 55]", "IC50": "> 10000"}
{"smiles": "CC1Cc2nc3sc(C#N)cc3cc2CC1C(C)(C)C", "note": "(stereo not shown) [Example 203, 6-tert-Butyl-7-methyl-5,6,7,8-tetrahydro-thieno[2,3,-b]quinoline-2-carbonitrile]", "IC50": "100 to 1000"}
{"smiles": "COc1ccc([C@@H](CN)NC(=O)c2cc3cc4c(nc3s2)CCC(C(C)(C)C)C4)cc1", "note": "(stereo partly shown) [Example 219]", "IC50": "< 100"}
{"smiles": "CC(C)(C)C1CCc2nc3sc(C(=O)N[C@H](CN)c4ccc(N)cc4)cc3cc2C1", "note": "(stereo partly shown) [Example 218]", "IC50": "< 100"}
{"smiles": "CC(C)(C)C1CCc2nc3sc(C(N)=O)cc3cc2C1", "note": "(single isomer, unassigned; (+)) [Example 68, (+)-6-(1,1-dimethylethyl)-5,6,7,8-tetrahydrothieno[2,3-b]quinoline-2-carboxamide]", "IC50": "< 100"}
{"smiles": "CC(C)(C)C1CCc2nc3sc(C(=O)N[C@H](CN)c4ccsc4)cc3cc2C1", "note": "(stereo partly drawn) [Example 284, 6-tert-butyl-5,6,7,8-tetrahydro-thieno[2,3-b]quinoline-2-carboxylic acid (2-amino-1(S)-thiophen-3-yl-ethyl)-amide]", "IC50": "< 100"}
{"smiles": "CC(C)(C)C1CCc2cc3cc(C(N)=O)sc3nc2CC1", "note": "(stereo not shown) [Example 66]", "IC50": "1000 to 10000"}
{"smiles": "CC(C)(C)C1CCc2nc3sc(C(=O)N[C@@H](Cc4ccccc4)C(=N)N)cc3cc2C1", "note": "(stereo partly shown) [Example 173]", "IC50": "1000 to 10000"}
{"smiles": "CC1(C)CCc2nc3sc(C#N)c(N)c3cc2C1", "note": "[Example 47]", "IC50": "> 10000"}
{"smiles": "CC1Cc2nc3sc(C#N)c(N)c3cc2CC1C(C)(C)C", "note": "(stereo not shown) [Example 202, 3-Amino-6-tert-butyl-7-methyl-5,6,7,8-tetrahydrothieno[2,3-b]quinoline-2-carbonitrile]", "IC50": "100 to 1000"}
{"smiles": "CCCCCC1CCc2nc3sc(C#N)c(N)c3cc2C1", "note": "(stereo not shown) [Example 19]", "IC50": "> 10000"}
{"smiles": "CC(C)C1Cc2cc3c(N)c(C#N)sc3nc2CC1C", "note": "(stereo not shown) [Example 207, 3-Amino-6-isopropyl-7-methyl-5,6,7,8-tetrahydro-thieno[2,3-b]quinoline-2-carbonitrile]", "IC50": "> 10000"}
{"smiles": "CCC(CC)(CC)C1CCc2nc3sc(C#N)c(N)c3cc2C1", "note": "(stereo not shown) [Example 5]", "IC50": "1000 to 10000"}
{"smiles": "CC(C)(C)C1CCc2nc3sc(C(=O)NCCCN)cc3cc2C1", "note": "(stereo not shown) [Example 101]", "IC50": "100 to 1000"}
{"smiles": "CC(C)(C)[C@@H]1CCc2nc3sc(C(=O)N[C@H](CN)c4cccc(NCc5ccncc5)c4)cc3cc2C1", "note": "[Example 281, 6(R)-tert-Butyl-5,6,7,8,-tetrahydro-thieno[2,3-b]quinoline-2-carboxylic acid (2(S)-amino-1-{3-[(pyridin-4-ylmethyl)-amino]-phenyl}-ethyl)-amide]", "IC50": "< 100"}
{"smiles": "CN1CCN(C(=O)Nc2cccc([C@@H](CN)NC(=O)c3cc4cc5c(nc4s3)CC[C@@H](C(C)(C)C)C5)c2)CC1", "note": "[Example 275, 6(R)-tert-butyl-5,6,7,8-tetrahydro-thieno[2,3-b]quinoline-2-carboxylic acid (2-amino-1(S)-{3-[(4-methyl-piperazine-1-carbonyl)-amino]-phenyl}-ethyl)-amide]", "IC50": "< 100"}
{"smiles": "CC(C)(C)C1CCc2nc3sc(C(=O)NCCN)cc3cc2C1", "note": "(stereo not shown) [Example 99]", "IC50": "< 100"}
{"smiles": "CC[C@@H](CO)NC(=O)c1cc2cc3c(nc2s1)CCC(C(C)(C)C)C3", "note": "(stereo partly shown) [Example 158]", "IC50": "> 10000"}
{"smiles": "CC(C)(C)C1CCc2nc3sc(C(=O)N[C@H](CN)Cc4ccccc4)cc3cc2C1", "note": "(stereo partly shown) [Example 179]", "IC50": "100 to 1000"}
{"smiles": "N#Cc1sc2nc3c(cc2c1N)CC(C12CC4CC(CC(C4)C1)C2)CC3", "note": "(stereo not shown) [Example 4]", "IC50": "> 10000"}
{"smiles": "CC(C)(C)C1CCc2nc3sc(C#N)cc3cc2C1", "note": "(single isomer, unassigned) [Example 62]", "IC50": "100 to 1000"}
{"smiles": "CC(C)C1Cc2cc3cc(C(N)=O)sc3nc2CC1C", "note": "(stereo not shown) [Example 209, 6-isopropyl-7-methyl-5,6,7,8-tetrahydro-thieno[2,3,-b]quinoline-2-carboxylic acid amide]", "IC50": "100 to 1000"}
{"smiles": "CC(C)(C)C1CCc2nc3sc(C(=O)N[C@H](CN)c4cccc(-c5cccc6cccnc56)c4)cc3cc2C1", "note": "(stereo partly drawn) [Example 213, 6-tert-butyl-5,6,7,8-tetrahydro-thieno[2,3-b]quinoline-2-carboxylic acid [(1S)-2-amino-1-(3-quinolin-8-yl-phenyl)-ethyl]-amide]", "IC50": "100 to 1000"}
{"smiles": "N#Cc1sc2nc3c(cc2c1N)CN(Cc1ccccc1)CC3", "note": "[Example 56]", "IC50": "> 10000"}
{"smiles": "CC(C)[C@@H](CO)NC(=O)c1cc2cc3c(nc2s1)CCC(C(C)(C)C)C3", "note": "(stereo partly drawn) [Example 157, 6-tert-Butyl-5,6,7,8-tetrahydrothieno[2,3-b]quinoline-2-carboxylic acid [(1S)-1-hydroxymethyl-2-methyl-propyl]amide]", "IC50": "> 10000"}
{"smiles": "CC(C)(C)C1CCc2nc3c(cc2C1)C(N)=C(C#N)S3(=O)=O", "note": "(stereo not shown) [Example 127, 3-Amino-6-tert-butyl-1,1-dioxo-5,6,7,8-tetrahydro-1H-1λ^6-thieno[2,3-b]quinoline-2-carbonitrile]", "IC50": "1000 to 10000"}
{"smiles": "CC(C)(C)C1CCc2nc3sc(-c4ncc(CN)[nH]4)cc3cc2C1", "note": "(stereo not shown) [Example 184, [2-(6-tert-Butyl-5,6,7,8-tetrahydrothieno[2,3-b]quinolin-2-yl)-3H-imidazol-4-yl]methylamine]", "IC50": "100 to 1000"}
{"smiles": "CC(C)(C)C1CCc2nc3sc(C(=O)NC(CO)C(N)=O)cc3cc2C1", "note": "(stereo not shown) [Example 100]", "IC50": "100 to 1000"}
{"smiles": "CC(C)(C)[C@@H]1CCc2nc3sc(C(=O)N[C@H](CN)c4cccc(NC(=O)c5nsc(Cl)c5Cl)c4)cc3cc2C1", "note": "[Example 253A]", "IC50": "100 to 1000"}
{"smiles": "CC(=O)Nc1cccc(C(CN)NC(=O)c2cc3cc4c(nc3s2)CCC(C(C)(C)C)C4)c1", "note": "(stereo not shown) [Example 222, 6-tert-butyl-5,6,7,8-tetrahydrothieno[2,3-b]quinoline-2-carboxylic acid [1-(3-acetylaminophenyl)-2-aminoethyl]amide]", "IC50": "< 100"}
{"smiles": "CC(C)(C)C1CCc2nc3sc(C(=O)NCC#N)cc3cc2C1", "note": "(stereo not shown) [Example 167, 6-tert-Butyl-5,6,7,8-tetrahydrothieno[2,3-b]quinoline-2-carboxylic acid cyanomethyl-amide]", "IC50": "100 to 1000"}
{"smiles": "CC(C)(C)C1CCc2nc3sc(C(=O)N[C@H](CO)Cc4ccccc4)cc3cc2C1", "note": "(stereo partly shown) [Example 159]", "IC50": "> 10000"}
{"smiles": "CC(C)(C)C1CCc2nc3sc(C(=O)N[C@H](CO)c4ccccc4)cc3cc2C1", "note": "(stereo partly shown) [Example 160]", "IC50": "1000 to 10000"}
{"smiles": "N#Cc1sc2nc3c(cc2c1N)CCCC3", "note": "[Example 45]", "IC50": "> 10000"}
{"smiles": "N#Cc1sc2nc3c(cc2c1N)CC1(CC3)OCCO1", "note": "[Example 44]", "IC50": "> 10000"}
{"target": "T1, KSP motor domain", "assay": "biochemical", "conditions": "exact IC50 values, end-point assay (Table 2); read-out: IC50", "units": {"IC50": "nM"}}
{"smiles": "CC(C)(C)C1CCc2nc3sc(C(N)=O)cc3cc2C1", "note": "(single isomer, unassigned; (+)) [Example 68, (+)-6-(1,1-dimethylethyl)-5,6,7,8-tetrahydrothieno[2,3-b]quinoline-2-carboxamide]", "IC50": 20}
{"smiles": "CC(C)(C)C1CCc2nc3sc(C(=O)N[C@H](CN)c4ccsc4)cc3cc2C1", "note": "(stereo partly drawn) [Example 284, 6-tert-butyl-5,6,7,8-tetrahydro-thieno[2,3-b]quinoline-2-carboxylic acid (2-amino-1(S)-thiophen-3-yl-ethyl)-amide]", "IC50": 8}
{"smiles": "CC(C)(C)C1CCc2nc3sc(C(=O)NCCN)cc3cc2C1", "note": "(stereo not shown) [Example 99]", "IC50": 22}
